Literature values in patent US20100113478A1, “INDOLONE MODULATORS OF 5-HT3 RECEPTOR” (AUSPEX PHARMACEUTICALS, INC., priority 2008, published 2010).

Details: women compared with men

- alosetron clearance lower in women than in men: 30%
SMILES: Cc1[nH]cnc1CN1CCc2c(c3ccccc3n2C)C1=O [alosetron, 5-methyl-2-((5-methyl-1H-imidazol-4-yl)methyl)-2,3,4,5-tetrahydro-1H-pyrido[4,3-b]indol-1-one]
